Results published in US20100063160A1, “POLYMORPHS OF O-DESMETHYL VENLAFAXINE SUCCINATE” (priority 2006, published 2010).
One block for each molecule: values may come before it.

Columns and labels:
[1] = relative stability of ODV succinate polymorphic forms; assay type: physicochemical; details: compared with the other forms of ODV succinate
[2] = in vivo, po; cited from earlier work
[3] = cited from earlier work
[4] = in vivo; cited from earlier work
[5] = cited from earlier work; remark: listed apart in the source
norepinephrine uptake = details: cited from earlier work
serotonin uptake = details: cited from earlier work

stability of polymorphic form [1]: most stable form
SMILES: CN(C)CC(c1ccc(O)cc1)C1(O)CCCCC1.O=C(O)CCC(=O)O (centres unmarked) [Form II of ODV succinate, O-desmethyl venlafaxine (ODV) succinate monohydrate]

SMILES: CN(C)CC(c1ccc(O)cc1)C1(O)CCCCC1.O=C(O)CCC(=O)O (centres unmarked) [ODV succinate, O-desmethyl venlafaxine (ODV) succinate]
incidence of nausea, vomiting, diarrhea, abdominal pain, headache, vasovagal malaise and/or trismus [2]: lower incidence
solubility [3]: high
absorption in the gastrointestinal tract [4]: well absorbed
bioavailability [4]: high
permeability [5]: high

SMILES: CN(C)CC(c1ccc(O)cc1)C1(O)CCCCC1 (centres unmarked) [ODV, 1-[2-(dimethylamino)-1-(4-hydroxyphenyl)ethyl]cyclohexanol]
norepinephrine uptake inhibition (norepinephrine uptake): inhibit
serotonin uptake inhibition (serotonin uptake): inhibit
